Experimental data taken from patent US8563543B2, “Iminothiadiazine dioxide compounds as bace inhibitors, compositions, and their use” (Merck Sharp & Dohme Corp., priority 2009, dated 2013).
Where “and” joins values, the source holds several entries; their conditions need not be identical. Equal values may be shown once.

What was measured:
[1] = Solution stability (hydrolysis) by LC/MS in pH 7.4 phosphate buffer; assay type: physicochemical; conditions: for hydrolysis: 25° C. over 6 days; for hydrolysis / hydrolysis product share of the sample: pH 7.4
Method: The following procedures were used to measure solution stability, and to compare the solution stability of the compounds of the invention to that of otherwise structurally identical iminopyrimidinones.
Stock solutions of the tested compounds were prepared by dissolving about 3 mg of each compound in 3 mL of acetonitrile. Standards for test compounds were prepared by diluting 1 mL of the stock solution with an additional 4 mL of acetonitrile. These standards were stored at 4° C. Samples were prepared by diluting 1 mL of the stock solution with 4 mL of 50 mM pH 7.4 phosphate buffer. These samples were stored at the appropriate temperature in the absence of light. Standards and samples were analyzed by LC/MS initially and at day 1, day 4, and day 6. • HPLC Conditions: • Mobile phase A: 10 mM pH 5 ammonium acetate buffer:methanol (90:10) • Mobile phase B: 10 mM pH 5 ammonium acetate buffer:methanol (10:90) • Column: Zorbax SB-Phenyl 4.6×50 mm, 1.8 μm • Column temperature: 40° C. • Flow: 0.8 mL/min. • Gradient:
• Detectors: UV at 220 nm and 236 nm • MS, ES ionization, positive mode, for identification only at final time point. • The terms reported in the tables below have the following meanings: • Area % is the integration of peak from HPLC as reported by Waters Empower II software. • RRT is the relative retention time of new product compared to the standard of the test compound. • Formula for RRT is:
[formula] • M+1 is the mass observed including protonation (+1 mass unit). • ND stands for no peak detected by the UV detector. • * stands for no ion detected by the mass spectrometer.

[2] = target: soluble human BACE1 catalytic domain (Homo sapiens, UniProt P56817); test: BACE1 HTRF FRET assay; assay type: biochemical; conditions: calculated from IC50 using the Cheng-Prusoff equation
soluble human BACE1 catalytic domain, sequence (P56817 75-416 limits assumed): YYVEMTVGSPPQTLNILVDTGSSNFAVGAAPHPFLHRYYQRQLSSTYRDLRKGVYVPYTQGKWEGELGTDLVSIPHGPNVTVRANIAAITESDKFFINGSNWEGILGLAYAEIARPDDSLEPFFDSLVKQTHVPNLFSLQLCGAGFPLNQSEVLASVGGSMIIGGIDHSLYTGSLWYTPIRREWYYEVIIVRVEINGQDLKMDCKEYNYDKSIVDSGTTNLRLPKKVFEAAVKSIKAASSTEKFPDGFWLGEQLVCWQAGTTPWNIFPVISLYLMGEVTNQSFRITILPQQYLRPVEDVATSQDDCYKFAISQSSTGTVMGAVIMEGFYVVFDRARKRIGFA
Text: Dimethyl Sulfoxide (DMSO)
Recombinant human soluble BACE1 catalytic domain (>95% pure)
APP Swedish mutant peptide substrate (QSY7-APP^swe-Eu): QSY7-[…]-Europium-amide
A homogeneous time-resolved FRET assay was used to determine IC50 values for inhibitors of the soluble human BACE1 catalytic domain. This assay monitored the increase of 620 nm fluorescence that resulted from BACE1 cleavage of an APPswedish APP^swe mutant peptide FRET substrate (QSY7-[…]-Europium-amide). This substrate contained an N-terminal QSY7 moiety that served as a quencher of the C-terminal Europium fluorophore (620 nm Em). In the absence of enzyme activity, 620 nm fluorescence was low in the assay and increased linearly over 3 hours in the presence of uninhibited BACE1 enzyme. Inhibition of BACE1 cleavage of the QSY7-APP^swe-Eu substrate by inhibitors was manifested as a suppression of 620 nm fluorescence.
Varying concentrations of inhibitors at 3× the final desired concentration in a volume of 10 ul were preincubated with purified human BACE1 catalytic domain (3 nM in 10 μl) for 30 minutes at 30° C. in reaction buffer containing 20 mM Na-Acetate pH 5.0, 10% glycerol, 0.1% Brij-35 and 7.5% DSMO. […] The 620 nm fluorescence was then read on a Rubystar HTRF plate reader (BMG Labtechnologies) using a 50 μs delay followed by a 400 millisecond acquisition time window. […]

[3] = target: T1, purified human autoBACE-2 (Homo sapiens, UniProt Q9Y5Z0); test: BACE-2 time-resolved endpoint proteolysis assay (BACE-HTRF assay); assay type: biochemical; conditions: calculated from IC50 using the Cheng-Prusoff equation
T1 sequence (Q9Y5Z0 63-473 limits assumed): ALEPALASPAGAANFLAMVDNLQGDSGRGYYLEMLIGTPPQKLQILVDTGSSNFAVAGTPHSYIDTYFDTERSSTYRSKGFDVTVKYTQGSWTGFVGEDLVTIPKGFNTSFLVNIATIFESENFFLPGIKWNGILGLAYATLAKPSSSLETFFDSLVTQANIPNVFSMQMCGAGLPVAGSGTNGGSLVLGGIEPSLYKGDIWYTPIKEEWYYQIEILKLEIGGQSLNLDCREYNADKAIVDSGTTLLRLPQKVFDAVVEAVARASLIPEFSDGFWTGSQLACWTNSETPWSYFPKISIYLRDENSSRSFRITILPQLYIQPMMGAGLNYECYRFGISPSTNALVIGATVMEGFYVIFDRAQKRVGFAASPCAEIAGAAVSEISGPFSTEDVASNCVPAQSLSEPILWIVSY
Method: Inhibitor IC50 values at purified human autoBACE-2 were determined in a time-resolved endpoint proteolysis assay that measures hydrolysis of the QSY7-[…]-Eu-amide FRET peptide substrate (BACE-HTRF assay). RACE-mediated hydrolysis of this peptide results in an increase in relative fluorescence (RFU) at 620 nm after excitation with 320 nm light. Inhibitor compounds, prepared at 3× the desired final concentration in 1×BACE assay buffer (20 mM sodium acetate pH 5.0, 10% glycerol, 0.1% Brij-35) supplemented with 7.5% DMSO were pre-incubated with an equal volume of autoBACE-2 enzyme diluted in 1×RACE assay buffer (final enzyme concentration 1 nM) in black 384-well NUNC plates for 30 minutes at 30° C. […] DMSO was present at 5% final concentration in the assay. Following laser excitation of sample wells at 320 nm, the fluorescence signal at 620 nm was collected for 400 ms following a 50 μs delay on a RUBYstar HTRF plate reader (BMG Labtechnologies). Raw RFU data was normalized to maximum (1.0 nM RACE/DMSO) and minimum (no enzyme/DMSO)RFU values. IC50 values were determined by nonlinear regression analysis (sigmoidal dose response, variable slope) of percent inhibition data with minimum and maximum values set to 0 and 100 percent respectively. Similar IC50 values were obtained when using raw RFU data. The Ki values were calculated from the IC50 using the Cheng-Prusoff equation.

[4] = Sample at pH 7.4, 25° C., Day 1
[5] = Sample at pH 7.4, 25° C., Day 4
[6] = Sample at pH 7.4, 25° C., Day 6
[7] = Sample at pH 7.4, 25° C., Initial
[8] = Sample initial, 40° C. and 60° C. studies
[9] = Standard in acetonitrile, stored at 4° C., Day 1
[10] = Standard in acetonitrile, stored at 4° C., Day 4
[11] = Standard in acetonitrile, stored at 4° C., Day 6
[12] = Standard in acetonitrile, stored at 4° C., Initial

hydrolysis [1]	hydrolysis product share of the sample ([1]; 40° C. over 4 days)	hydrolysis product share of the sample ([1]; 60° C.)	Area %, Day 1 (parent peak) [1, 4]	Area %, Day 4 (parent peak) [1, 5]	Area %, Day 6 (parent peak) [1, 6]	Area %, Initial (parent peak) [1, 7]	Area %, Initial (parent peak) [1, 8]	Area %, Day 1 (parent peak) [1, 9]	Area %, Day 4 (parent peak) [1, 10]	Area %, Day 6 (parent peak) [1, 11]	Area %, Initial (parent peak) [1, 12]	Area %, Day 1 (parent peak) ([1]; pH 7.4 at 40° C., Day 1)	Area %, Day 4 (parent peak) ([1]; pH 7.4 at 40° C., Day 4)	SMILES	other results
3.36%	31.4%	28.5%	100.0%	100.0%	89.79%	100.0%	98.2%	100.0% and 99.4%	100.0%	100.0%	100.0% and 98.8%	86.3%	55.8%	CN1C(=N)N[C@](C)(c2ccc(F)cc2F)[C@@H](c2ccc(C(F)(F)F)cc2)C1=O [Compound Y]	Area %, Day 6 (hydrolysis product peak) [1, 6]: 3.36%; Area %, Initial (hydrolysis product peak) [1, 8]: 0.7%; Area %, Day 1 (hydrolysis product peak) ([1]; pH 7.4 at 40° C., Day 1): 10.5%; Area %, Day 4 (hydrolysis product peak) ([1]; pH 7.4 at 40° C., Day 4): 31.4%; Area %, Day 4 (unidentified peak, RRT 0.87) ([1]; pH 7.4 at 40° C., Day 4, no ion detected by the mass spectrometer): 5.8%; Area %, Day 1 (hydrolysis product peak) ([1]; pH 7.4 at 60° C., Day 1): 28.5%; Area %, Day 1 (parent peak) ([1]; pH 7.4 at 60° C., Day 1): 56.7%; Area %, Day 1 (unidentified peak, RRT 0.87) ([1]; pH 7.4 at 60° C., Day 1, no ion detected by the mass spectrometer): 6.6%
no hydrolysis	no hydrolysis	no hydrolysis	100.0%	100.0%	100.0%	100.0%	100.0%	100.0%	100.0%	100.0%	100.0%	100.0%	100.0%	CN1C(=N)N[C@](C)(c2ccc(F)cc2F)[C@@H](c2ccc(C(F)(F)F)cc2)S1(=O)=O [Example 3]	Ki [2]: ~9 nM; Ki [3]: ~11 nM; Area %, Day 4 (parent peak) ([1]; pH 7.4 at 60° C., Day 4): 87.3%; Area %, Day 4 (unidentified peak, RRT 0.52) ([1]; pH 7.4 at 60° C., Day 4, no ion detected by the mass spectrometer): 12.7%
